US20160237158A1, “Methods and Compositions for Targeting Tumor Microenvironment and for preventing Metastasis” (INSTITUT NATIONAL DE LA SANTÉ ET DA LA RECHERCHE MÉDICALE …, priority 2013, published 2016)

System: fibroblasts
Assay: Fibroblast contractility (collagen lattices) and pro-invasive activity (organotypic invasion) induced by human tumour cell conditioned media
Format: cell-based
Set-up: key to Fibroblasts contractile & pro-invasive phenotype: +: induction; −: no induction
Experimental: In this assay, hDF or CAFs were cultured during one week in serum-free medium (with either vehicle or cytokines) or CM before embedding in matrix gel. 5×10^5 fibroblasts were embedded in a 1 ml mixture of collagen I and Matrigel18. After the gel was set at 37° C. for 1 h, 5×10^5 SCC12 were plated on top of the gel in complete media. The next day, the gel was lifted onto individual collagen coated nylon discs resting on metal bridges and fed from underneath with daily changes of complete media (with either vehicle or inhibitors), allowing the epithelial layer to grow at an air-liquid interface.
After 5 days, cultures were fixed (4% paraformaldehyde+0.25% glutaraldehyde in PBS) and processed for haematoxylin and eosin (H&E) staining by standard methods. Invasion assay was measuring the total area of SCC cells and the area of non-invading SCC cells using imageJ software (http://rsbweb.nih.gov/ij/). The value of invasion index shown is the average 1−(non-invading area/total area) of at least ten fields from three or more independent experiments. Error bars are the standard deviation.
2.5×10^4 Fibroblasts were embedded in 100 μl of matrix gel (the Collagen-Matrigel mixture used for organotypic invasion assays) and plated into wells of a 96 well plate^57. After 1 h at 37° C., the matrices were overlaid with 100 μl serum-free medium (with either vehicle, cytokines or inhibitors) or CM. Every 2 days, medium was changed and at day 6 the gels were photographed and the respective diameters of the well and gel were measured using ImageJ. The percentage contraction was calculated using the formula 100*(well diameter−gel diameter)/well diameter.
Neutralizing antibody against LIF (AB-250-NA, R&D, Minneapolis, Minn.), IL-6 R (AB-227-NA, R&D) or TGF beta-1,2,3 (MAB1835, R&D) were used at 10 μg/ml otherwise stated. Neutralizing antibody were incubated one hour with conditioned media before being used for matrix remodelling assay and fibroblasts stimulation to neutralize the biological activity of selected cytokines.
Cancer Cells were grown to confluence, washed twice with PBS and then incubated in serum-free medium at 37° C. After 48 hours, conditioned medium was collected, centrifugated at 5000 g for 5 minutes to remove cell debris and the supernatant stored at −80° C. For immunobloting analysis, fibroblasts were stimulated with cancer cells conditioned media for 5 min, otherwise stated, and lysed as described in the immunbloting section. To analyse LIF secretion upon TGFβ-1 stimulation, fibroblasts were stimulated with 2 ng/ml TGF beta-1 for 1, 4, 24 or 48 h in serum-free medium and conditioned media was prepared as below for ELISA analysis.

Measured: Fibroblasts contractile & pro-invasive phenotype

N#CCC(C1CCCC1)n1cc(-c2ncnc3[nH]ccc23)cn1 (centres unmarked) [Ruxolitinib, 3-Cyclopentyl-3-[4-(7H-pyrrolo[2,3-d]pyrimidin-4-yl)-1H-pyrazol-1-yl]propanenitrile]
−: A375M2 CM (h. melanoma), antibodies 10 μg·ml−1, αLIF (50) | A375P CM (h. melanoma), antibodies 10 μg·ml−1 | A549 CM (h. lung carcinoma), antibodies 10 μg·ml−1 | CAL27 CM (human OSCC), antibodies 10 μg·ml−1, αLIF (50) | CAL33 CM (human OSCC), antibodies 10 μg·ml−1 | CAL33_LIF CM (h. engineered cell line), antibodies 10 μg·ml−1, αLIF (50) | CAL33_mock CM (h. engineered cell line), antibodies 10 μg·ml−1 | CAL60 CM (human OSCC), antibodies 10 μg·ml−1 | CAL166 CM (human OSCC), antibodies 10 μg·ml−1 | Detroit562 CM (human OSCC), antibodies 10 μg·ml−1 | LS174 CM (h. colon carcinoma), antibodies 10 μg·ml−1 | MDA-MB-231 CM (breast carcinoma), antibodies 10 μg·ml−1 | MDA-MB-468 CM (breast carcinoma), antibodies 10 μg·ml−1 | Mel501 CM (h. melanoma), antibodies 10 μg·ml−1 | Mel1205 CM (h. melanoma), antibodies 10 μg·ml−1 | SCC12 CM (human OSCC), antibodies 10 μg·ml−1 | SCC13 CM (human OSCC), antibodies 10 μg·ml−1 | SCC25 CM (human OSCC), antibodies 10 μg·ml−1 | Sbcl2 CM (h. melanoma), antibodies 10 μg·ml−1 | WM35 CM (h. melanoma), antibodies 10 μg·ml−1 | WM278 CM (h. melanoma), antibodies 10 μg·ml−1 | WM793 CM (h. melanoma), antibodies 10 μg·ml−1 | hPK CM, antibodies 10 μg·ml−1
